From US20080226648A1, “Methods for Treating Stress and Affecting Biological Immune Systems” (priority 2004, published 2008)
Structures can show the parent of a compound that is named as a salt.

Columns and labels:
Type in all cases: in vivo
Male C57BL/6N mice [1] = assay: Relative weights of spleen and thymus to body weight in mice; settings: 30 days
Description: Male C57BL/6N mice were used in Example 2, 28 mice in total. The 28 mice were used for pretest for 7 days before the treatment began. Two groups of 14 mice were then created. […] Each group contained […]. The treatment period was for 30 days. Lymphocyte transformation rate in plasma, white blood cell (WBC) count, natural killer cell activity, Plasma IL-2 (Kit provided by Jinginei Biotech) and IL-6 (Kit provided by Bender MedSystems) measurements, and antibody forming, cell count were performed according to methods known to the skilled artisan (see “Medical Immunology Experiment,” Publisher: People Hygiene, Published in 1999 in China, Editor: Xi Chuan Ping). Five days before the end of the treatment, 12 mice from each group (each replicate for 2 mice) were immunized with 0.5 ml of 2% sheep RBC (equivalent to −2×10^8 cells per ml) for testing spleen B-cells. The relative weights of spleen and thymus to body weight (mg/100 g BW) were also measured. All statistical analyses were performed on ANOVA. After conducting all tests and analyses, the relative weight of certain immune organs, namely the thymus and spleen, were measured, as illustrated in Table 4.

K562 cells = assay: Natural killer cell killing rate in mice; settings: 30 days, killing of K562 cells
Description: (§1) Male C57BL/6N mice were used in Example 2, 28 mice in total. The 28 mice were used for pretest for 7 days before the treatment began. Two groups of 14 mice were then created. […] Each group contained six replicates and each replicate contained 8 mice. The treatment period was for 30 days.
(§2) Lymphocyte transformation rate in plasma, white blood cell (WBC) count, natural killer cell activity, Plasma IL-2 (Kit provided by Jinginei Biotech) and IL-6 (Kit provided by Bender MedSystems) measurements, and antibody forming, cell count were performed according to methods known to the skilled artisan (see “Medical Immunology Experiment,” Publisher: People Hygiene, Published in 1999 in China, Editor: Xi Chuan Ping). Five days before the end of the treatment, 12 mice from each group (each replicate for 2 mice) were immunized with 0.5 ml of 2% sheep RBC (equivalent to −2×10^8 cells per ml) for testing spleen B-cells. The relative weights of spleen and thymus to body weight (mg/100 g BW) were also measured. All statistical analyses were performed on ANOVA.
(§3) The WBC count, lymphocyte transformation rate (specifically in the spleen), antibody forming cell, and natural killer cell killing rate (based on the killing rate of K562 cells by natural killer cell) were measured and analyzed, as illustrated in Tables 4and5.

spleen B-cells = assay: Antibody forming cell count (spleen B-cells after sheep RBC immunization) in mice; settings: 30 days, immunized with sheep RBC
Description: as §1, §2, §3

IL-2 [2] = assay: Serum IL-2 concentration (RIA) in goats pre- and post-operation
Experimental: (§4) An experiment was conducted on sixteen castrated adult goats, which were randomly divided into control group (n=8) and treatment group (TG, n=8); housed separately; and fed with the same nutrient level. The TG was treated orally with a cysteamine compound (the cysteamine compound is preferably cysteamine hydrochloride, where a dose of 45 mg/kg of body weight was administered, with 30% of the 45 mg/kg dosage comprising the cysteamine compound) provided by Shanghai Walcom Bio-Chem Ltd). Both groups were subjected to rumen operation and duodenum operation.
(§5) This experiment was conducted in four phases: (a) Roughage phase pre-operation: from day 18 to day 14 before the operation, both groups of goats were fed with roughage (dried peanut stalk) and water; (b) Concentrate phase pre-operation: day 13 to day 1 before the operation (in total 13 days), both groups were fed with roughage and concentrate (50 g/head), and the TG was also treated with a cysteamine compound (using dosages described above) at the same time; (c) Rumen operation phase: after completion of the concentrate phase pre-operation, the rumen operation was performed to affix a fistula on the rumen, which was followed by 18 days of recovery; (d) Duodenum operation phase: 18 days after the rumen operation, a second operation was performed to affix a fistula on the duodenum, following which the goats were allowed to have 17 days of recovery to complete this experiment. The feeding diet during the operation was same as that of concentrate phase per-operation.
(§6) While conducting the experiment, blood samples were periodically collected. In general, blood was collected via the neck vein before morning feeding. Part of the blood from each sample was stored in tubes containing heparin for anti-coagulation. The remaining part of each blood sample was centrifuged and then stored the serum at −20° C. Blood samples were collected at the following times: (a) Day 4 of the Roughage phase pre-operation; (b) Day 13 of the Concentrate phase (one day before the operation, B1); (c) 10 days after the 1st operation (rumen operation); and (d) 6 days and 17 days after the 2nd operation (duodenum operation).
(§7) Serum IL-2, cortisol concentration and lymphatic transformation testing were also performed during the experiment. […] To perform lymphatic cells transformation test, the blood samples from both groups were treated as follows: 3 tubes/sample, with blood sample 100 ul/tube for PHA− (PHA−: without PHA) and 3 tubes/sample for PHA+(PHA+: each tube added with 50 ul PHA diluted solution); cells in both PHA− and PHA+ were cultured for total 72 hours. After 48 hours of cell culture, 1 uL ^3H-TdR was added to each tube with and mixed with cells and incubated further for 24 hours. At the completion of the culturing process, the cells were lysed. The lysate from both PHA− and PHA+ tubes were transferred to scintillation bottles, dried at 80° C., then added with 5 ml scintillation solution. The solutions were stored overnight and tested for cpm. SI index implies the rate of lymphatic cells transformation induced by lectin, SI=cpm(PHA+)/cpm(PHA−).
(§8) IL-2 and cortisol testing kits were used. To prepare RPMI-1640 cell culture medium, RPMI-1640 powder was added with distillated water and filtered, and 20% Fetal Bovine Serum, Penicillin (100 U/ml) as well as Streptomycin (100 U/ml) was added. 2 ml culture medium solution was then added to each tube. In addition, diluted PHA, [Methy-^3H] Thymidine with radioactivity 1 mci/m, and Scintillation solution: PPO (2,5, Diphenyloxazole,) 5 g POPOP(1,4bis [5-phenyloxazolyl] benzene) 0.3 g Dimethyl benzene: 800 mL; 100% ethanol: 200 ml were added to each tube.
All data from the experiment (see Table 1) were expressed in mean±SE and analyzed by Excel software for t-test analysis, where P<0.05 implies significant difference, and 0.05<P<0.15 implies changes. The symbol “§” in Table 1 denotes TG treated with Cysteamine. […]

lymphocyte = assay: Lymphocyte transformation rate (SI value, PHA) in mice; settings: 30 days
Description: Male C57BL/6N mice were used in Example 2, 28 mice in total. The 28 mice were used for pretest for 7 days before the treatment began. Two groups of 14 mice were then created. […] Each group contained six replicates and each replicate contained 8 mice. The treatment period was for 30 days. Lymphocyte transformation rate in plasma, white blood cell (WBC) count, natural killer cell activity, Plasma IL-2 (Kit provided by Jinginei Biotech) and IL-6 (Kit provided by Bender MedSystems) measurements, and antibody forming, cell count were performed according to methods known to the skilled artisan (see “Medical Immunology Experiment,” Publisher: People Hygiene, Published in 1999 in China, Editor: Xi Chuan Ping). Five days before the end of the treatment, 12 mice from each group (each replicate for 2 mice) were immunized with 0.5 ml of 2% sheep RBC (equivalent to −2×10^8 cells per ml) for testing spleen B-cells. The relative weights of spleen and thymus to body weight (mg/100 g BW) were also measured. All statistical analyses were performed on ANOVA. The WBC count, lymphocyte transformation rate (specifically in the spleen), antibody forming cell, and natural killer cell killing rate (based on the killing rate of K562 cells by natural killer cell) were measured and analyzed, as illustrated in Tables 4and5. […]

Male C57BL/6N mice [3] = assay: White blood cell (WBC) count in mice; settings: 30 days
Description: as §1, §2, §3

cortisol = assay: Serum cortisol concentration (RIA) in goats pre- and post-operation
Experimental: as §4, §5, §6, §7, §8
Cortisol concentrations of the two groups before the operation were substantially similar (20.51±4.1 for the control group versus 20.32±4.0 ug 1^−1 for the TG). Changes in cortisol concentration levels in the TG before and after the 1st operation were slight. […]

IL-2 [4] = assay: Plasma IL-2 measurement in mice; settings: 30 days
Description: (§9) Male C57BL/6N mice were used in Example 2, 28 mice in total. The 28 mice were used for pretest for 7 days before the treatment began. Two groups of 14 mice were then created. […] Each group contained six replicates and each replicate contained 8 mice. The treatment period was for 30 days. Lymphocyte transformation rate in plasma, white blood cell (WBC) count, natural killer cell activity, Plasma IL-2 (Kit provided by Jinginei Biotech) and IL-6 (Kit provided by Bender MedSystems) measurements, and antibody forming, cell count were performed according to methods known to the skilled artisan (see “Medical Immunology Experiment,” Publisher: People Hygiene, Published in 1999 in China, Editor: Xi Chuan Ping). Five days before the end of the treatment, 12 mice from each group (each replicate for 2 mice) were immunized with 0.5 ml of 2% sheep RBC (equivalent to −2×10^8 cells per ml) for testing spleen B-cells. The relative weights of spleen and thymus to body weight (mg/100 g BW) were also measured. All statistical analyses were performed on ANOVA.

lymphatic cells = assay: Lymphatic cells transformation test (PHA, 3H-TdR, SI) on blood of goats pre- and post-operation
Experimental: as §4, §5
While conducting the experiment, blood samples were periodically collected. In general, blood was collected via the neck vein before morning feeding. Part of the blood from each sample was stored in tubes containing heparin for anti-coagulation. […]
IL-2 and cortisol testing kits were used. […] Thymidine with radioactivity 1 mci/m, and Scintillation solution: PPO (2,5, Diphenyloxazole,) 5 g POPOP(1,4bis [5-phenyloxazolyl] benzene) 0.3 g Dimethyl benzene: 800 mL; 100% ethanol: 200 ml were added to each tube.

IL-6 = assay: Plasma IL-6 measurement in mice; settings: 30 days
Description: as §9

Compound: NCCS [Cysteamine hydrochloride, cysteamine hydrochloride]
- Spleen weight (Male C57BL/6N mice [1]; Treatment 1: 40 mg/kg BW oral): 298 ± 5.03 mg/100 g of body weight
- Thymus weight (Male C57BL/6N mice [1]; Treatment 1: 40 mg/kg BW oral): 549 ± 1.89 ^B mg/100 g of body weight
- Spleen weight (Male C57BL/6N mice [1]; Treatment 2: 80 mg/kg BW oral): 296 ± 7.50 mg/100 g of body weight
- Thymus weight (Male C57BL/6N mice [1]; Treatment 2: 80 mg/kg BW oral): 567 ± 7.18 ^A mg/100 g of body weight
- NK Killing Rate (K562 cells; Treatment 1: 40 mg/kg BW oral): 92.19 ± 2.20%
- NK Killing Rate (K562 cells; Treatment 2: 80 mg/kg BW oral): 93.60 ± 2.21%
- Antibody Forming Cell (OD, Optical Density) (spleen B-cells; Treatment 1: 40 mg/kg BW oral): 1.48 ± 0.19 ^A OD
- Antibody Forming Cell (OD, Optical Density) (spleen B-cells; Treatment 2: 80 mg/kg BW oral): 0.91 ± 0.51 ^C OD
- difference in IL-2 concentration levels between the two groups (IL-2 [2]; after 17 days from the 2nd operation): had disappeared
- TG IL-2 concentration levels higher than the control group (IL-2 [2]; after the first operation (Day 10 after 1st, Day 6 after 2nd operation), P<0.05): 90-100%
- IL-2 concentration in TG, pre- versus post-operation (IL-2 [2]; treatment group): no significant difference between pre- and post-operation
- IL-2 serum concentration (IL-2 [2]; treatment group n=8, oral 45 mg/kg BW (30% cysteamine compound), pre-operation Concentrate phase, listed as Cysteamine, hydrochloride, 45 mg/kg): 0.97 ± 0.15 µg/L
- IL-2 serum concentration (IL-2 [2]; treatment group n=8, oral 45 mg/kg BW (30% cysteamine compound), pre-operation Concentrate phase, listed as cysteamine compound, hydrochloride, 45 mg/kg): 0.97 ± 0.15 µg/L
- IL-2 serum concentration (IL-2 [2]; treatment group, oral 45 mg/kg BW, after 1st (rumen) operation, Day 10, listed as Cysteamine, hydrochloride, 45 mg/kg): 1.32 ± 0.10 ^A ug/l
- IL-2 serum concentration (IL-2 [2]; treatment group, oral 45 mg/kg BW, after 1st (rumen) operation, Day 10, listed as cysteamine compound, hydrochloride, 45 mg/kg): 1.32 ± 0.10 µg/L
- IL-2 serum concentration (IL-2 [2]; treatment group, oral 45 mg/kg BW, after 2nd (duodenum) operation, Day 6, listed as Cysteamine, hydrochloride, 45 mg/kg): 0.95 ± 0.06 ^B ug/l
- IL-2 serum concentration (IL-2 [2]; treatment group, oral 45 mg/kg BW, after 2nd (duodenum) operation, Day 6, listed as cysteamine compound, hydrochloride, 45 mg/kg): 0.95 ± 0.06 µg/L
- IL-2 serum concentration (IL-2 [2]; treatment group, oral 45 mg/kg BW, after 2nd (duodenum) operation, Day 17): 1.02 ± 0.08 µg/L
- Lymphocyte Transformation (SI Value, Stimulation Index) (lymphocyte; Treatment 1: 40 mg/kg BW oral): 1.15 ± 0.02 ^B
- Lymphocyte Transformation (SI Value, Stimulation Index) (lymphocyte; Treatment 2: 80 mg/kg BW oral): 1.24 ± 0.05 ^A
- WBC Count (Male C57BL/6N mice [3]; Treatment 1: 40 mg/kg BW oral): 7.12 ± 0.65 10^9/L
- WBC Count (Male C57BL/6N mice [3]; Treatment 2: 80 mg/kg BW oral): 7.53 ± 0.55 10^9/L
- cortisol concentration before the operation (cortisol; TG, before the operation): 20.32±4.0 ug 1^−1
- changes in cortisol concentration levels in the TG before and after the 1st operation (cortisol; treatment group): slight
- cortisol serum concentration (cortisol; treatment group n=8, oral 45 mg/kg BW, pre-operation Concentrate phase): 20.3 ± 4.0 µg/L
- cortisol serum concentration (cortisol; treatment group, after 1st operation, Day 10): 20.9 ± 3.7 µg/L
- cortisol serum concentration (cortisol; treatment group, after 2nd operation, Day 6): 21.2 ± 5.2 µg/L
- cortisol serum concentration (cortisol; treatment group, after 2nd operation, Day 17): 20.7 ± 5.8 µg/L
- Plasma IL-2 (IL-2 [4]; Treatment 1: 40 mg/kg BW oral): 5.88 ± 0.53 pg/mL
- Plasma IL-2 (IL-2 [4]; Treatment 2: 80 mg/kg BW oral): 5.76 ± 0.50 pg/mL
- degree of decrease in lymphatic cells transformation rate caused by surgical operations (lymphatic cells; TG versus control group, P<0.05): significantly smaller than that of the control group
- rate of TG lymphatic cell transformation increased compared to the rate of the control group (lymphatic cells; six days after the 2nd/duodenum operation, P<0.05): 3.5 fold
- lymphatic cells transformation rate (SI) (lymphatic cells; treatment group, oral 45 mg/kg BW, Concentrate phase pre-operation, P=0.14 vs control): 132.4±20.3
- Plasma IL-6 (IL-6; Treatment 1: 40 mg/kg BW oral): 226.20 ± 37.93 pg/mL
- Plasma IL-6 (IL-6; Treatment 2: 80 mg/kg BW oral): 247.00 ± 51.76 pg/mL
